Results on 17 compounds are retold here after patent US10806785B2, “Immunomodulator compounds and methods of use” (Incyte Corporation, priority 2016, dated 2020).

This test concerns the target PD-1/PD-L1 (Homo sapiens (Human), UniProt Q9NZQ7). Put plainly: PD-1/PD-L1 binding assay (HTRF). As for the experimental part: The assays were conducted in a standard black 384-well polystyrene plate with a final volume of 20 μL. Inhibitors were first serially diluted in DMSO and then added to the plate wells before the addition of other reaction components. The final concentration of DMSO in the assay was 1%. The assays were carried out at 25° C. in the PBS buffer (pH 7.4) with 0.05% Tween-20 and 0.1% BSA. Recombinant human PD-L1 protein (19-238) with a His-tag at the C-terminus was purchased from AcroBiosystems (PD1-H5229). Recombinant human PD-1 protein (25-167) with Fc tag at the C-terminus was also purchased from AcroBiosystems (PD1-H5257). PD-L1 and PD-1 proteins were diluted in the assay buffer and 10 μL was added to the plate well. Plates were centrifuged and proteins were preincubated with inhibitors for 40 minutes. The incubation was followed by the addition of 10 μL of HTRF detection buffer supplemented with Europium cryptate-labeled anti-human IgG (PerkinElmer-AD0212) specific for Fc and anti-His antibody conjugated to SureLight®-Allophycocyanin (APC, PerkinElmer-AD0059H). After centrifugation, the plate was incubated at 25° C. for 60 min. before reading on a PHERAstar FS plate reader (665 nm/620 nm ratio). Final concentrations in the assay were […], 10 nM PD-L1, 1 nM europium anti-human IgG and 20 nM anti-His-Allophycocyanin. IC50 determination was performed by fitting the curve of percent control activity versus the log of the inhibitor concentration using the GraphPad Prism 5.0 software.
For orientation: TR-FRET usually uses a lanthanide donor and a delayed reading to cut background.

Usually IC50 stands for the concentration at which inhibition is half-maximal. A higher IC50 goes with weaker potency.

Chain of PD-1/PD-L1 (Q9NZQ7 19-238): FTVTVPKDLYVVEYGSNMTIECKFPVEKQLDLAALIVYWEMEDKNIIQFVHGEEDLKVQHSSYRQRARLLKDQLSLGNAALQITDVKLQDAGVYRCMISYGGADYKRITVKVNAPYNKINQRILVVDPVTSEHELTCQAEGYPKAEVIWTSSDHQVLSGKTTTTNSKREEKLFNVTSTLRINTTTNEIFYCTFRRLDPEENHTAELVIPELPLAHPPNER

As for `Cc1c(NC(=O)c2nc3c(n2C)CCN(CC(=O)O)C3)cccc1-c1cccc(NC(=O)c2nc3c(n2C)CCN(C)C3)c1Cl` [Example 33, 2-(2-(2′-chloro-3′-(1,5-dimethyl-4,5,6,7-tetrahydro-1H-imidazo[4,5-c]pyridine-2-carboxamido)-2-methylbiphenyl-3-ylcarbamoyl)-1-methyl-6,7-dihydro-1H-imidazo[4,5-c]pyridin-5(4H)-yl)acetic Acid], the IC50 was no more than 10 nM. As to `Cn1c(C(=O)Nc2cccc(-c3cccc(NC(=O)c4nc5c(n4C)CCN(CC4CC4)C5)c3Cl)c2Cl)nc2c1CCN(CC[C@H]1CC[C@H](C(=O)O)CC1)C2` [Example 87, trans-4-(2-(2-((2,2′-dichloro-3′-(5-(cyclopropylmethyl)-1-methyl-4,5,6,7-tetrahydro-1H-imidazo[4,5-c]pyridine-2-carboxamido)-[1,1′-biphenyl]-3-yl)carbamoyl)-1-methyl-1,4,6,7-tetrahydro-5H-imidazo[4,5-c]pyridin-5-yl)ethyl)cyclohexane-1-carboxylic acid], the IC50 is no more than 10 nM.

`C[C@H](O)CN1CCc2c(nc(C(=O)Nc3cccc(-c4cccc(NC(=O)c5nc6c(n5C)CCN(C)C6)c4Cl)c3Cl)n2C)C1` [Example 27, (S)—N-(2,2′-dichloro-3′-(1,5-dimethyl-4,5,6,7-tetrahydro-1H-imidazo[4,5-c]pyridine-2-carboxamido)biphenyl-3-yl)-5-(2-hydroxypropyl)-1-methyl-4,5,6,7-tetrahydro-1H-imidazo[4,5-c]pyridine-2-carboxamide] registered an IC50 of no more than 10 nM. In turn, `Cc1c(COc2cc(OCc3cncc(C#N)c3)c(CN3CCCC[C@H]3C(=O)O)cc2Cl)cccc1-c1cccc(NC(=O)c2nc3c(n2C)CCN(C)C3)c1Cl` [Example 54, (S)-1-(5-chloro-4-((2′-chloro-3′-(1,5-dimethyl-4,5,6,7-tetrahydro-1H-imidazo[4,5-c]pyridine-2-carboxamido)-2-methyl-[1,1′-biphenyl]-3-yl)methoxy)-2-((5-cyanopyridin-3-yl)methoxy)benzyl)piperidine-2-carboxylic acid] returned an IC50 of no more than 10 nM.

Take `Cn1c(C(=O)Nc2cccc(-c3cccc(NC(=O)c4nc5c(n4C)CCN(C4CCC4)C5)c3Cl)c2Cl)nc2c1CCN(CC13CCC(C(=O)O)(CC1)C3)C2` [Compound 178, 4-((2-(2,2′-dichloro-3′-(5-cyclobutyl-1-methyl-4,5,6,7-tetrahydro-1H-imidazo[4,5-c]pyridine-2-carboxamido)biphenyl-3-ylcarbamoyl)-1-methyl-6,7-dihydro-1H-imidazo[4,5-c]pyridin-5(4H)-yl)methyl)bicyclo[2.2.1]heptane-1-carboxylic acid]: the IC50 was no more than 10 nM. In turn, `CCC1(C(=O)O)CCC(N2CCc3c(nc(C(=O)Nc4cccc(-c5cccc(NC(=O)c6nc7c(n6C)CCN(C)C7)c5Cl)c4Cl)n3C)C2)CC1` (centres unmarked) [Example 83, 4-(2-((2,2′-dichloro-3′-(1,5-dimethyl-4,5,6,7-tetrahydro-1H-imidazo[4,5-c]pyridine-2-carboxamido)-[1,1′-biphenyl]-3-yl)carbamoyl)-1-methyl-1,4,6,7-tetrahydro-5H-imidazo[4,5-c]pyridin-5-yl)-1-ethylcyclohexane-1-carboxylic acid] had an IC50 of no more than 10 nM. Take `Cc1c(NC(=O)c2nc3c(n2C)CCN(C2C4CC5CC2CC(C(=O)O)(C5)C4)C3)cccc1-c1cccc(NC(=O)c2nc3c(n2C)CCN(C)C3)c1Cl` (centres unmarked) [175 (compound 175-1), 4-(2-((2′-chloro-3′-(1,5-dimethyl-4,5,6,7-tetrahydro-1H-imidazo[4,5-c]pyridine-2-carboxamido)-2-methyl-[1,1′-biphenyl]-3-yl)carbamoyl)-1-methyl-1,4,6,7-tetrahydro-5H-imidazo[4,5-c]pyridin-5-yl)adamantane-1-carboxylic acid]: the IC50 was no more than 10 nM. Turning to `Cc1c(NC(=O)c2nc3c(n2C)CCN(C2CCC(C)(C(=O)O)CC2)C3)cccc1-c1cccc(NC(=O)c2nc3c(n2C)CCN(C)C3)c1Cl` (centres unmarked) [Example 35, 4-(2-(2′-chloro-3′-(1,5-dimethyl-4,5,6,7-tetrahydro-1H-imidazo[4,5-c]pyridine-2-carboxamido)-2-methylbiphenyl-3-ylcarbamoyl)-1-methyl-6,7-dihydro-1H-imidazo[4,5-c]pyridin-5(4H)-yl)-1-methylcyclohexanecarboxylic acid], the IC50 was no more than 10 nM.

In turn, `Cc1c(NC(=O)c2cc(CN3CC[C@@H](O)C3)cn(C)c2=O)cccc1-c1cccc(NC(=O)c2nc3c(n2C)CCN(C)C3)c1Cl` [Example 48, (R)—N-(2-chloro-3′-(5-((3-hydroxypyrrolidin-1-yl)methyl)-1-methyl-2-oxo-1,2-dihydropyridine-3-carboxamido)-2′-methylbiphenyl-3-yl)-1,5-dimethyl-4,5,6,7-tetrahydro-1H-imidazo[4,5-c]pyridine-2-carboxamide] registered an IC50 of no more than 10 nM. The value for `Cc1c(NC(=O)c2nc3c(n2C)CCN(CC2CC2)C3)cccc1-c1cccc(NC(=O)c2nc3c(n2C)CCN(CC[C@H]2CC[C@H](C(=O)O)CC2)C3)c1Cl` [Example 128, trans-4-(2-(2-((2-chloro-3′-(5-(cyclopropylmethyl)-1-methyl-4,5,6,7-tetrahydro-1H-imidazo[4,5-c]pyridine-2-carboxamido)-2′-methyl-[1,1′-biphenyl]-3-yl)carbamoyl)-1-methyl-1,4,6,7-tetrahydro-5H-imidazo[4,5-c]pyridin-5-yl)ethyl)cyclohexane-1-carboxylic acid] was no more than 10 nM.

In turn, `C[C@H](O)CN1CCc2c(nc(C(=O)Nc3cccc(-c4cccc(NC(=O)c5nc6c(n5C)CCN(C[C@H]5CC[C@H](C(=O)O)CC5)C6)c4Cl)c3Cl)n2C)C1` [Example 66, trans-4-((2-((2,2′-dichloro-3′-(5-((S)-2-hydroxypropyl)-1-methyl-4,5,6,7-tetrahydro-1H-imidazo[4,5-c]pyridine-2-carboxamido)-[1,1′-biphenyl]-3-yl)carbamoyl)-1-methyl-1,4,6,7-tetrahydro-5H-imidazo[4,5-c]pyridin-5-yl)methyl)cyclohexane-1-carboxylic acid] registered an IC50 of no more than 10 nM.

In turn, `Cn1c(C(=O)Nc2cccc(-c3cccc(NC(=O)c4nc5c(n4C)CCN(C4CCCC4)C5)c3Cl)c2Cl)nc2c1CCN(CC[C@H]1CC[C@H](C(=O)O)CC1)C2` [Example 90, trans-4-(2-(2-((2,2′-dichloro-3′-(5-cyclopentyl-1-methyl-4,5,6,7-tetrahydro-1H-imidazo[4,5-c]pyridine-2-carboxamido)-[1,1′-biphenyl]-3-yl)carbamoyl)-1-methyl-1,4,6,7-tetrahydro-5H-imidazo[4,5-c]pyridin-5-yl)ethyl)cyclohexane-1-carboxylic acid] returned an IC50 of no more than 10 nM. Compound `CCN1CCc2c(nc(C(=O)Nc3cccc(-c4cccc(NC(=O)c5nc6c(n5C)CCN(CC[C@H]5CC[C@H](C(=O)O)CC5)C6)c4Cl)c3Cl)n2C)C1` [Example 86, trans-4-(2-(2-((2,2′-dichloro-3′-(5-ethyl-1-methyl-4,5,6,7-tetrahydro-1H-imidazo[4,5-c]pyridine-2-carboxamido)-[1,1′-biphenyl]-3-yl)carbamoyl)-1-methyl-1,4,6,7-tetrahydro-5H-imidazo[4,5-c]pyridin-5-yl)ethyl)cyclohexane-1-carboxylic acid] yielded an IC50 of no more than 10 nM. The value for `Cc1c(NC(=O)c2nc3c(n2C)CCN(C[C@H](C)O)C3)cccc1-c1cccc(NC(=O)c2nc3c(n2C)CCNC3)c1Cl` [Example 41, (S)—N-(2′-chloro-2-methyl-3′-(1-methyl-4,5,6,7-tetrahydro-1H-imidazo[4,5-c]pyridine-2-carboxamido)-[1,1′-biphenyl]-3-yl)-5-(2-hydroxypropyl)-1-methyl-4,5,6,7-tetrahydro-1H-imidazo[4,5-c]pyridine-2-carboxamide] was no more than 10 nM; that for `Cc1c(NC(=O)c2nc3c(n2C)CCN(C[C@H](C)O)C3)cccc1-c1cccc(NC(=O)c2nc3c(n2C)CCN(C(C)C)C3)c1Cl` [Example 45, (S)—N-(2-chloro-3′-(5-(2-hydroxypropyl)-1-methyl-4,5,6,7-tetrahydro-1H-imidazo[4,5-c]pyridine-2-carboxamido)-2′-methylbiphenyl-3-yl)-5-isopropyl-1-methyl-4,5,6,7-tetrahydro-1H-imidazo[4,5-c]pyridine-2-carboxamide] was no more than 10 nM; that for `Cc1c(NC(=O)c2nc3c(n2C)CCN(C)C3)cccc1-c1cccc(NC(=O)c2nc3c(n2C)CCN(CC[C@H]2CC[C@H](C(=O)O)CC2)C3)c1Cl` [Example 115, trans-4-(2-(2-((2-chloro-3′-(1,5-dimethyl-4,5,6,7-tetrahydro-1H-imidazo[4,5-c]pyridine-2-carboxamido)-2′-methyl-[1,1′-biphenyl]-3-yl)carbamoyl)-1-methyl-1,4,6,7-tetrahydro-5H-imidazo[4,5-c]pyridin-5-yl)ethyl)cyclohexane-1-carboxylic acid] was no more than 10 nM. The compound `Cn1c(C(=O)Nc2cccc(-c3cccc(NC(=O)c4nc5c(n4C)CCN(CC[C@H]4CC[C@H](C(=O)O)CC4)C5)c3Cl)c2Cl)nc2c1CCN(CCO)C2` [Example 93, trans-4-(2-(2-((2,2′-dichloro-3′-(5-(2-hydroxyethyl)-1-methyl-4,5,6,7-tetrahydro-1H-imidazo[4,5-c]pyridine-2-carboxamido)-[1,1′-biphenyl]-3-yl)carbamoyl)-1-methyl-1,4,6,7-tetrahydro-5H-imidazo[4,5-c]pyridin-5-yl)ethyl)cyclohexane-1-carboxylic acid] registered a half-inhibitory concentration (IC50) of no more than 10 nM.
